According to patent publication US9504248B2, “Antimicrobial composition” (Rohm and Haas Company, priority 2011, dated 2016):
Values after ≈ are worked out from the molar mass of the structure shown.

Columns and labels:
Type in all cases: cell-based
[1] = system: Escherichia coli (10536 strain); experiment: 15 second contact suspension kill assay (Example 1 protocol, also Example 3); settings: Escherichia coli, 15 s; component alone; lowest tested concentration giving zero bacterial survival after 15 s; upper boundary; read-out: Minimum biocidal concentration (MBC)
Description: The efficacies of antimicrobial agents can be usefully compared by determining the Minimum Biocidal Concentration (MBC). The MBC is defined as the lowest absolute concentration of the particular active that provides complete kill (zero bacterial growth). The differing behaviours of inhibitory antimicrobtals in Isolation and mixtures have been widely explored using the concept of the Fractional Concentration and Fractional Inhibitory Concentration (FIC). See for instance J R W Lambert and R Lambert, J. Appl. Microblol 95, 734 (2003); T. Jadavji. C G Prober and R Cheung. Antimicrobial Agents and Chemotherapy 26, 91 (1984), and WO 2004/006876. These parameters can be defined as follows:
[formula] [formula] By analogy the Fractional Biocidal Concentration (FBC) is given by:
Antimicrobial efficacy is tested against a representative pathogenic bacterial organism, Gram negative Escherichia coli. Concentrations of actives are expressed in terms of the percentage weight/volume (% w/v) throughout Example 1.
An overnight culture of Escherichia coli (10536 strain) was prepared in 50 ml total volume of TSB broth, grown for ca. 18 hrs at 37° C. and shaken at 150 rpm. 1 ml of this overnight E. coli culture was transferred to 50 ml of fresh TSB broth and incubated at 37° C. at 150 rpm for ca. 4 hours. This culture was separated into equal volumes and centrifuged at 4000 rpm for 15 minutes, washed with sterile saline (0.85% NaCl), centrifuged once more and re-suspended in saline to give a final concentration of 0.8 OD620 equivalent to about 10^8 cells per milliliter for this particular organism. Here, OD620 indicates the absorbance of a sample in a cuvette of 1.0 cm path length at a wavelength of 620 nm. This bacterial stock was used for assaying against antimicrobial actives (in triplicate).
The following assay describes the testing of 8 materials using 6 dilutions across half of a 96-well micro titre plate (MTP). Using this approach it is possible to assay 16 actives (without replicates) with one full dilution plate, replicating this set up in two halves of the plate columns, 1-6 and 7-12.
1M solutions of the test actives were prepared in dimethylsulphoxide (DMSO).
Aliquots (270 μl) of the materials at 1.11 times the final concentration were dispensed into the wells of the MTP along one column (A1-H1). This MTP was labelled as the “Screening plate”.
In another MTP, labelled as the “Dilution plate”, 270 μl of D/E neutralising solution from DIFCO Composition was added to column 1. The composition of the neutralising solution was as follows: pancreatic digest of casein, 5.0 g/L; Yeast Extract, 2.5 g/L; Dextrose, 10 g/L, sodium thioglycollate, 1.0 g/L, sodium thiosulphate, 6.0 g/L; sodium bisulphite, 2.5 g/L; Polysorbate 80, 5.0 g/L; lecithin 7.0 g/L; bromocresol purple, 0.02 g/L with a pH in the range 7.6±0.2.
270 μl of tryptone diluent solution was added to all the remaining wells of the Dilution MTP (columns 2-6).
Bacterial stock (30 μl) was then added to the prepared 270 μl of the solution of actives in the Screening Plate and mixed, using a multichannel pipette with 8 tips to aspirate and dispense the same volume of bacterial stock in parallel to 8 wells in rows A-H. After a contact time of 15 seconds, the mixtures were quenched by transferring 30 μl volumes of the mixtures into the 270 μl D/E neutralising solution in the prepared dilution plate, using aspiration to mix. After exactly 5 minutes in the DIE neutralising solution, 30 μl volumes were transferred from column 1 to column 2 of the Dilution MTP and mixed, before transferring further 30 μl volumes from column 2 into column 3. This process was repeated serially diluting the bacteria across the plate to column 6.
30 μl volumes from each well in the Dilution MTP were transferred onto pre-labelled segment of Tryptone Soya Agar (TSA) plates starting from the lowest bacterial concentration (highest dilution, column 6) to the highest bacterial concentration (column 1).

[2] = system: Escherichia coli (E. coli - ATCC #10536); experiment: High resolution MBC synergy assay in phosphate buffer containing 35% dipropylene glycol, 15 seconds (Example 2); settings: 15 s, complete kill; phosphate buffer with 35% DPG
Protocol: In this Example, a wide range of combinations of chemicals was tested by conducting high resolution MBC assays of monosubstituted phenols in the presence of various concentrations of terpineol. […] High resolution MBCs were determined by adding varying amounts of microbicide to one column of a microtiter plate and doing subsequent […] dilutions using an automated liquid handling system to obtain a series of endpoints ranging from 0.002% to 1% of the test compound. The MBC plate was inoculated one column at a time with the test microorganism. An aliquot of the inoculated well was transferred at 15 seconds to a plate containing a neutralizing agent (D/E Neutralizing Broth), mixed and held for 5 minutes before being transferred to a growth plate containing trypticase soy broth (TSB). The TSB plate was incubated at 37° C. and read for the presence/absence of growth at 24 hours.
This microorganism is representative of natural contaminants in many consumer and industrial applications.

[3] = system: Escherichia coli (E. coli - ATCC #10536); experiment: Automated assessment of efficacy in surfactant base, 15 seconds exposure, OD450/OD590 readout (Example 4); settings: for MBC: Escherichia coli, ATCC10536, 15 s, in 2.85% sodium cocoyl glycinate + 1.85% sodium lauroamphoacetate solution at pH 10, 15 s; for antimicrobial action in combination with terpineol in the presence of surfactant (in words): cocoyl glycinate and lauroamphoacetate
Protocol: In these examples, the efficacy of combinations of monosubstituted phenols and terpineol were tested in a surfactant cleansing formulation comprising 2.85% sodium cocoyl glycinate and 1.85% sodium lauroamphoacetate. This corresponds to a 50% in use dilution with water of a typical neat formulation containing 5.7% cocoyl glycinate and 3.7% % sodium lauroamphoacetate during hand washing. Solutions were prepared such that the concentrations of the surfactant components and test actives were 1.1 times the final desired concentration in order to allow for dilution with the bacterial inoculum in the test. The solutions were manually adjusted to pH 10.0 by dropwise addition of sodium hydroxide solution, as measured with a pH meter at ambient temperature. Solutions of the monosubstituted phenols and/or terpineols were prepared at a maximum of 24 hours before testing. The same terpineol was used as in Example 1.
The efficacy of the combinations of the present invention was determined against the same bacterium as in Example 1, Escherichia coli (E. coli—ATCC #10536), at a concentration of approximately 1×10^8 bacteria per mL.
Tests were conducted using standard microtiter plate assays using an automated liquid handling system. 270 μl of the surfactant test solution was pipetted into each well of the microtitre plate (Nunc F Gamma Irradiated 96F untreated microtitre plates of clear polystyrene) and 30 μl of the bacterial suspension was then added. After exactly 15 seconds of bacterial exposure, a 30 μl volume of bacterial cells was withdrawn and transferred to 270 μl of D/E quench solution. After 5 minutes in the D/E quench, the optical density (OD) was measured for each plate in turn at two specific wavelengths (450 nm and 590 nm). These provide a dual check of antimicrobial activity, as the OD450 reading is specific for the yellow colour of D/E quench when bacterial growth is observed, whereas OD590 is specific for the initial purple colour of the D/E quench which is retained if no bacterial growth is observed. After the time zero OD measurements, plates were then incubated at 37° C. overnight (16 hours) before repeating the OD measurements. Delta OD values were calculated by subtracting […] at time=16 hours. Bacterial growth is observed as an increase in OD450 and a decrease in OD590. To identify antibacterially efficacious systems (those preventing appreciable bacterial growth after incubation), the following threshold changes in OD readings have been adopted: if (1). OD450 increases by less than 0.2 absorbance unit (AU) on incubation and (2). OD590 decreases by less than 0.35 AU on incubation. Conversely, where OD450 increases by more than […] after incubation, corresponding to a colour shift from purple to yellow, the test system allows bacterial growth and is not deemed efficacious. Four replicate measurements in the same plate have been made for each test system. The number of replicate wells showing either bacterial growth or no growth is also readily assessed by eye by following the colour change. Thymol and terpineol were tested both alone and in combination for comparison purposes.
In some selected cases, the combinations were also tested at the weight ratio 1:1.
The surfactants used are not themselves antimicrobially active against E. coli at the concentrations employed as shown by the results of Ex. (4:1) in Table 24. Thus, any antimicrobial efficacy can be ascribed to the monosubstituted phenols and/or terpineol. Table 25 presents MBC-values determined similarly as described for Example 1.

| SMILES | MBC [1] | MBC of first component alone (MBCA; Ca at Cb = 0) [2] | MBC [3] | antimicrobial action in combination with terpineol in the presence of surfactant (in words) [3] | MBC of second component (terpineol) alone (MBCB; Cb at Ca = 0) [2] |
| --- | --- | --- | --- | --- | --- |
| Oc1ccccc1Cc1ccccc1 [2-benzylphenol] | 500 µg/mL (≈ 2.71 mM) | 0.6 weight % | > 2000 µg/mL | enhanced antimicrobial action | – |
| CC(C)(C)c1ccccc1O [2-tert-butylphenol] | 500 µg/mL (≈ 3.33 mM) | 0.2 weight % | 1750 µg/mL | enhanced antimicrobial action | – |
| Oc1ccccc1C1CCCC1 [2-cyclopentylphenol] | 1000 µg/mL (≈ 6.16 mM) | 0.8 weight % | > 2000 µg/mL | enhanced antimicrobial action | – |
| Oc1ccc(C2CCCC2)cc1 [4-cyclopentylphenol] | 800 µg/mL (≈ 4.93 mM) | 0.6 weight % | > 2000 µg/mL | – | – |
| Oc1ccc(Cc2ccccc2)cc1 [4-benzylphenol] | 500 µg/mL (≈ 2.71 mM) | 0.5 weight % | > 2000 µg/mL | enhanced antimicrobial action | – |
| CCCc1cccc(O)c1 [3-n-propylphenol] | – | 0.05 weight % | 1750 µg/mL | enhanced antimicrobial action | – |
| CCCCCc1ccc(O)cc1 [4-pentylphenol] | 250 µg/mL (≈ 1.52 mM) | 1.0 weight % | > 2000 µg/mL | – | – |
| CC1=CCC(C(C)(C)O)CC1 (stereo not drawn) [alpha-terpineol] | – | – | – | – | 0.6 weight % |
| CCCc1ccccc1O [2-n-propylphenol] | – | 0.3 weight % | – | enhanced antimicrobial action | – |
| CCCc1ccc(O)cc1 [4-n-propylphenol] | 750 µg/mL (≈ 5.51 mM) | 0.3 weight % | – | enhanced antimicrobial action | – |
| CCC(C)c1ccccc1O (centres unmarked) [2-sec-butylphenol] | 500 µg/mL (≈ 3.33 mM) | 0.2 weight % | > 2000 µg/mL | enhanced antimicrobial action | – |
